Experimental data from patent US9505768B2, “Compositions and methods for modulating TLR4” (The Regents of the University of California, priority 2012, dated 2016).
Entries after “also recorded” stand apart in the source; their conditions may differ. Where two headings read alike, the source gives them in different places.

What was measured:
mBMDC = test: MTT viability assay in mBMDC; settings: 18 h, concentrations up to 10 μM
Procedure: Cytotoxicity of the compounds was evaluated by MTT assay as a measure of viability. mBMDC (10^5/well) were incubated with graded concentrations of the compounds for 18 h and compared with vehicle (0.5% DMSO) and MPLA (1 μg/mL). […] (FIG. 6B) The cells were lysed after the overnight incubation with MTT reagents, and absorbance at 570 nm was measured, subtracting the reference absorbance at 650 nm. Data shown are mean±SEM of triplicates and are representative of two independent experiments showing similar results.

human TLR4 = biological target: T1, human TLR4 (Homo sapiens, UniProt O00206+Q9Y6Y9); test: Human TLR4 HEK Blue NFκB/SEAP reporter assay; type: cell-based; settings: for human TLR4, values normalized to Cmpd 1: hTLR4 HEK293 transfectoma, all compounds tested at 10 μM, Cmpd 1 set at 100
T1 construct: host or cells: HEK293 (HEK Blue) cells with NFκB/SEAP reporter
Procedure: (§1) The above assays were utilized to compare the derivatives of the lead pyrimidoindole for their ability to activate mouse and human TLR4. […] Each cytokine induction curve was first converted to a percent activity curve, and then the AUC of the percent activity curve was calculated. The process of converting to a percent activity curve allowed subtracting background and adjusting for plate-to-plate variation.
(§2) The culture supernatants were harvested after a 20-24 h incubation period. SEAP activity in the supernatants was determined by a colorimetric assay, using either the SEAPorter Assay Kit (Imgenex), with absorbance read at 405 nm, or QuantiBlue (Invivogen), with absorbance read at 630 nm.

mouse TLR4 = biological target: T2, mouse TLR4 (Mus musculus, UniProt Q9JHF9+Q9QUK6); test: Murine TLR4 HEK Blue NFκB/SEAP reporter assay; type: cell-based; settings: for mouse TLR4, area under curve (AUC) values normalized to Cmpd 1: mTLR4 HEK transfectoma, 312 nM to 10 μM, Cmpd 1 set at 100
T2 construct: host or cells: HEK293 (HEK Blue) cells with NFκB/SEAP reporter
T2 sequence (Q9QUK6 26-835): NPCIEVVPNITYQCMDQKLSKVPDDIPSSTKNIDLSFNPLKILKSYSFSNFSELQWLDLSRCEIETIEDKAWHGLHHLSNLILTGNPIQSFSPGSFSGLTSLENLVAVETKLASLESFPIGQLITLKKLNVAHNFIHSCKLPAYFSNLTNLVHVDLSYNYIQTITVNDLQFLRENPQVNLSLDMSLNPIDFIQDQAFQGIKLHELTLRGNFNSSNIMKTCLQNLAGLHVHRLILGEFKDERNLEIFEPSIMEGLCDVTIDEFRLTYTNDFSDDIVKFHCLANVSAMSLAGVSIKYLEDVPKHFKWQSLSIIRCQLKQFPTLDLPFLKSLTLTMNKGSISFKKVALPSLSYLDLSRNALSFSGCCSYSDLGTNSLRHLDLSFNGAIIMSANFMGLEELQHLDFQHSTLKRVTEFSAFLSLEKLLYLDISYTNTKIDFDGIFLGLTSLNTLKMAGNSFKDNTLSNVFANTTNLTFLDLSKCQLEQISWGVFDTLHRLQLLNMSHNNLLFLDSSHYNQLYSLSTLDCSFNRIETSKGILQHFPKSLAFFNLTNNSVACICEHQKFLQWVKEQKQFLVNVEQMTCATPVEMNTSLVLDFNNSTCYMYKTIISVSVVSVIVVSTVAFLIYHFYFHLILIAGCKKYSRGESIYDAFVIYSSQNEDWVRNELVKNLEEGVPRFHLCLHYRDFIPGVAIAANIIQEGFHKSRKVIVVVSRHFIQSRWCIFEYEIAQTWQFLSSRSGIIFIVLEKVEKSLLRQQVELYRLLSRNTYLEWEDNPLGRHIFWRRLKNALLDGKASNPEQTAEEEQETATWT
T2 sequence (Q9JHF9 19-160): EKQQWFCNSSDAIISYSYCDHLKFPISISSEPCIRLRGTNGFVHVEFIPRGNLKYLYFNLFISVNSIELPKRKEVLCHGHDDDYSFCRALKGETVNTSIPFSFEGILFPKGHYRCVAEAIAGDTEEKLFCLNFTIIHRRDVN
Procedure: as §1, §2

C57BL/6 mice [1] = test: Protection from LPS/galactosamine-induced lethal liver injury; type: in vivo, mouse
Procedure: FIGS. 11A-11B depict that administration of Cmpd 42 and Cmpd 33 protects hosts from LPS-induced lethal liver injury. FIG. 11A: Schematic showing that C57BL/6 mice were intraperitoneously injected with 500 nmol Cmpd. 42 (n=11) or Cmpd 33 (n=11). 40 μg MPLA (n=9) and vehicle (n=9) were used as positive and negative controls, respectively. Next day, mice were challenged with LPS (0.2 μg/animal) and galactosamine (12 mg/animal). FIG. 11B: Histogram showing results of sera collected 1.5 h post challenge and measured for TNFα. *:p<0.05 compared to vehicle treated mice.
Lipopolysaccharide (LPS), a TLR4 ligand, causes severe lethal liver injury when administered with galactosamine. Pretreatment of mice with MPLA is known to improve the survival in this model. To study whether Cmpd 42 and Cmpd 33 are able to act as immunomodulatory agents similar to MPLA, the mice were treated with Cmpd 42 or Cmpd 33 and challenged with LPS/galatosamine the next day, as depicted in FIG. 11A. Over 80% of Cmpd 42 and 100% of Cmpd 33-treated mice survived.

[2] = tested on: mouse bone marrow derived dendritic cells (mBMDC); test: IP-10 induction in mBMDC (ELISA), surrogate marker of type I IFN; type: cell-based
C57BL/6 mice [3] = settings: in vivo
[4] = tested on: mouse bone marrow derived dendritic cells (mBMDC); test: IL-6 induction in mouse bone marrow derived dendritic cells (ELISA); type: cell-based; settings: relative to Cmpd 1 / within series
Procedure: as §1
(§3) BMDC were prepared from C57BL/6 mice as described. See e.g., Wu, C. […] BMDC (10^5 cells per well) were plated in 96-well plates in 200 μL of complete RPMI1640 supplemented with 10% fetal calf serum (FCS; Sigma Aldrich), 100 U/mL penicillin, and 100 μg/mL streptomycin (Invitrogen). […] After 18 h incubation, the cell culture supernatants were collected. LPS (purified LPS, Invivogen, San Diego, Calif.) or MPLA (1 μg/mL synthetic MPLA, Invivogen, San Diego, Calif.) were used as positive controls. […] The AUC was calculated from BMDC dose-response curves using Prism 5 (GraphPad, San Diego). Each cytokine induction curve was first converted to a percent activity curve, and then the AUC of the percent activity curve was calculated. The process of converting to a percent activity curve allowed subtracting background and adjusting for plate-to-plate variation.

[5] = tested on: mouse bone marrow derived dendritic cells (mBMDC); test: as above; type: cell-based
[6] = Oral bioavailability in mice (serum LC/MS); type: in vivo; settings: mouse, C57BL/6 mice, 1 μmol oral vs 500 nmol i.v., AUC method
Procedure: FIG. 14 depicts time course showing that Cmpd 42 is orally bioavailable in mice. C57BL/6 mice were intravenously (500 nmol) or orally (1 μmol) administered with Cmpd 42. Sera were collected at the indicated time point and concentration of the compound were measured by LC/MS. Legend: oral administration, closed circle; i.v. administration, closed box. X-axis: time (min). Y-axis: concentration of Cmpd 42 (nM).
To test oral bioavailability, Cmpd 42 was orally or intravenously administered to C57BL/6 mice and the drug concentration in sera was measured. Results are depicted in FIG. 14.

[7] = tested on: mouse bone marrow derived dendritic cells (mBMDC); test: IP-10 induction in mBMDC (ELISA), surrogate marker of type I IFN; type: cell-based; settings: relative to Cmpd 1
Procedure: In addition to the production of inflammatory cytokines (IL-6, IL-12, TNFα, etc.) mediated by NFκB activation, TLR4 signaling can result in the production of type I interferons, a feature that is not only important for activation of dendritic cells leading to good adjuvant activity, but would also be important for rapid defense against a variety of pathogens, particularly viruses. […] To determine the relative ability of all compounds to induce the production of type 1 IFN, each was evaluated in mouse bone marrow derived dendritic cells as shown in Tables 1-3.
as §3
In addition, the levels of IP-10, a surrogate marker of type I IFN, in the supernatants were determined by ELISA (R&D Systems, Minneapolis, Minn.).

[8] = tested on: mouse bone marrow derived dendritic cells (mBMDC)
Procedure: 0.5% DMSO in saline served as a vehicle controls. The levels type I IFN were determined using L929-ISRE luciferase reporter cell line using murine IFN beta standard (FIG. 7A). IP-10 levels were determined by ELISA (FIG. 7B). Data shown are mean±SEM of triplicates in representative of two independent experiments showing similar results. * denotes p<0.05 was considered as significant compared to vehicle using one way ANOVA with Dunnett's post hoc testing.
L929 cells stably expressing an interferon sensitive response element (ISRE) luciferase reporter construct were kindly provided by Dr. B. Beutler (UT Southwestern, Texas). […] The bioactivity of type I IFN in mBMDC supernatants was measured by luciferase assay using L929-ISRE cells as described previously. […] Thus, 50 μL of μBMDC supernatant was incubated with L929-ISRE cells in 50 μL of DMEM for 6 h. Mu-IFN Beta Standard (PBL Interferon Source, Piscataway, N.J.) was used as a standard. The luciferase activities were measured by Steady-Glo luciferase assay buffer (Promega, Madison, Wis.).

[9] = tested on: TLR2, TLR3, TLR4/MD-2/CD14, TLR5, TLR7, TLR8, or TLR9 expressing HEK293 cells; settings: 10 μM, 20-24 h, SEAP
Description: To identify the target receptor, we used HEK293 cells stably transfected with individual human (h) TLRs: TLR2, TLR3, TLR4/MD-2/CD14, TLR5, TLR7, TLR8, or TLR9 expressing HEK293 cells, along with an NFκB activation reporter producing secreted embryonic alkaline phosphatase (SEAP).

[10] = tested on: human peripheral blood mononuclear cells (hPBMC); test: IL-8 release from human PBMC (ELISA); type: cell-based; settings: compound 1 10 μM
Procedure: Human PBMC were isolated from buffy coats obtained from the San Diego Blood Bank (San Diego, Calif.) as described previously. […] The levels of IL-8 in the supernatants were determined by ELISA (BD Biosciences, La Jolla, Calif.). Human cell cultures were treated with 10 ng/mL LPS as the positive control.

[11] = WT vs Cd14-/- mBMDC, 3.7 μM overnight

T1 sequence (O00206 24-839): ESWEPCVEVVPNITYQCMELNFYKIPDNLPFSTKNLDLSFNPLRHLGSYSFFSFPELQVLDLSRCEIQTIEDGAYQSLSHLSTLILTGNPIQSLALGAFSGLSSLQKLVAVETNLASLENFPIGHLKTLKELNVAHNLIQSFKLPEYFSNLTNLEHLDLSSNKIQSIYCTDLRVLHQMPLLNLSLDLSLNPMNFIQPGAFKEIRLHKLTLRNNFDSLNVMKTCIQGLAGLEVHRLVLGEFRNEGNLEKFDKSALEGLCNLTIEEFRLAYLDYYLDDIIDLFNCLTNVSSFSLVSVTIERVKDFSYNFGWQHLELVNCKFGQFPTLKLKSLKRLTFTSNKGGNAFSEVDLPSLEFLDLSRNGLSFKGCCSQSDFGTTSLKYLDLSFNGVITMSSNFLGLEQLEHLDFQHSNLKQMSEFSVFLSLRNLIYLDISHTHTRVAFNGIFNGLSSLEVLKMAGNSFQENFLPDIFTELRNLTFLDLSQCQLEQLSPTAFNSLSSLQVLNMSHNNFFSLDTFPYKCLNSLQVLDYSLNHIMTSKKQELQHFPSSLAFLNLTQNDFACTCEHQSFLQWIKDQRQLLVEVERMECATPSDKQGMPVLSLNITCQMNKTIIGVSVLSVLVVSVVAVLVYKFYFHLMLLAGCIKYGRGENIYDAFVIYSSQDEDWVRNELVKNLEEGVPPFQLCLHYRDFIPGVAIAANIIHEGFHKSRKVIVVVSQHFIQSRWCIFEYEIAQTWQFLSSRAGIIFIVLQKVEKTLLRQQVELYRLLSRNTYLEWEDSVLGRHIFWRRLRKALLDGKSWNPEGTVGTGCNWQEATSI
T1 sequence (Q9Y6Y9 19-160): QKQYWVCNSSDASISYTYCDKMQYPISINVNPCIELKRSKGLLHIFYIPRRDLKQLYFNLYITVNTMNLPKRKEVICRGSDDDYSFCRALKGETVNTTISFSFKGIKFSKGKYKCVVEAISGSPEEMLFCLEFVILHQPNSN

Compound: N#CCn1c2ccccc2c2nc(SCC(=O)NC3CCCCC3)n(-c3ccccc3)c(=O)c21 [Compound 51, 2-((5-(cyanomethyl)-4-oxo-3-phenyl-4,5-dihydro-3H-pyrimido[5,4-b]indol-2-yl)thio)-N-cyclohexylacetamide]
- cell viability (MTT) (mBMDC): did not reduce cell viability
- human TLR4, values normalized to Cmpd 1 (human TLR4): 19
- mouse TLR4, area under curve (AUC) values normalized to Cmpd 1 (mouse TLR4): 55

Compound: CCCn1c2ccccc2c2nc(SCC(=O)NC3CCCCC3)n(-c3ccccc3)c(=O)c21 [Compound 48, N-cyclohexyl-2-((4-oxo-3-phenyl-5-propyl-4,5-dihydro-3H-pyrimido[5,4-b]indol-2-yl)thio)acetamide]
- cell viability (MTT) (mBMDC): did not reduce cell viability

Compound: Cn1c2ccccc2c2nc(SCC(=O)NC3CCCCC3)n(-c3ccccc3)c(=O)c21 [Compound 42, N-cyclohexyl-2-((5-methyl-4-oxo-3-phenyl-4,5-dihydro-3H-pyrimido[5,4-b]indol-2-yl)thio)acetamide]
- cell viability (MTT) (mBMDC): did not reduce cell viability
- human TLR4, values normalized to Cmpd 1 (human TLR4): 92
- mouse TLR4, area under curve (AUC) values normalized to Cmpd 1 (mouse TLR4): 100
- serum TNFα (C57BL/6 mice [1]; […] post challenge, compared to vehicle treated mice): significantly lower level
- mice survived (C57BL/6 mice [1]; i.p. pretreatment 500 nmol, LPS/galactosamine challenge next day): Over 80%
- Survival (C57BL/6 mice [1]; i.p. pretreatment (500 nmol Cmpd, 40 μg MPLA), next day LPS 0.2 μg + galactosamine 12 mg per animal, survivors/treated): 9/11
- IP-10 induction in LPS mutant (Trif lps/lps) cells ([2]; 5 μM overnight, vs C57BL/6 WT): significantly decreased
- mice survived (C57BL/6 mice [3]; C57BL/6, mouse): 100%
- maximum tolerated dose relative to MPLA (C57BL/6 mice [3]; mouse): > 10 times
- serum TNFα (C57BL/6 mice [3]; mouse): significantly lower level
- IL-6 activity in mBMDC (in words) [4]: high IL-6
- IL-6 secretion in MyD88 null dendritic cells ([5]; 5 μM overnight, vs C57BL/6 WT): significantly impaired
- bioavailability [6]: ~15%
- IP-10 production in mBMDC (in words) [7]: high IP-10 production

Compound: O=C(CSc1nc2c([nH]c3ccccc32)c(=O)n1-c1ccccc1)NC1CCCCC1 [Compound 1, N-cyclohexyl-2-((4-oxo-3-phenyl-4,5-dihydro-3H-pyrimido[5,4-b]indol-2-yl)thio)acetamide]
- human TLR4 reporter cell activation (in words) (human TLR4): dose-dependent activation
- OD630 of human TLR4 reporter cells (human TLR4; 10 μM Cmpd 1): 0.88
- human TLR4, values normalized to Cmpd 1 (human TLR4): 100
- CD14 dependence of type I IFN production [8, 11]: not dependent on CD14
- type I IFN production ([8]; graded doses, mBMDC overnight): dose-dependent response
- TLR selectivity among TLR transfected HEK293 reporter cells [9]: only those expressing TLR4/MD-2/CD14 responded
- mouse TLR4 reporter cell activation (in words) (mouse TLR4): dose-dependent activation
- relative reporter activation, murine TLR4 cells (mouse TLR4; 5 μM Cmpd 1): 1.52±0.03
- mouse TLR4, area under curve (AUC) values normalized to Cmpd 1 (mouse TLR4): 100
- IL-8 released by hPBMC cultures (average, SD) [10]: 7.8 ± 0.8 ng/mL
- IP-10 production [2]: dose-dependent response
- IP-10 production in mBMDC (in words) [2]: high IP-10 production
- IP-10 released by mBMDC cultures (average) [2]: 590.0 ± 10.5 pg/mL
- IL-6 activity in mBMDC (in words) [4]: the most active; also recorded: high IL-6
- IL-6 released by mBMDC cultures (average, SD) ([5]; 5 μM Cmpd 1): 10.5 ng/mL
- IL-6 secretion in TLR4 deficient vs wild-type mBMDC ([5]; 10 μM, 18 h): completely abrogated
- CD14 dependence of IL-6 production [5, 11]: not dependent on CD14; also recorded: retains IL-6 activity
